Source: US20120034613A1, “Apparatus and Method for Testing Relationships Between Gene Expression and Physical Appearance of Skin” (NSE Products, Inc., priority 2010, published 2012)

Legend:
[1] = test system: facial skin in the crow's feet area; assay: Ultrasound measurement of density of the facial skin, 12 week clinical study; assay type: in vivo, human; conditions: for Ultrasound Density Mean: Baseline mean 18.55
From the text: (§1) Ultrasound measurements were taken on the left side of each subject's face to measure density of the facial skin in the crow's feet area. Measurements were taken with the probe oriented perpendicular to the body axis while the subjects were resting supine on a padded patient table. All clinical and corneometer measurements and evaluations were taken at baseline, week 1 (visit 2), week 4 (visit 3), week 8 (visit 4) and week 12 (visit 5). Ultrasound and cutometer measurements and evaluations were taken at baseline, week 4 (visit 3), week 8 (visit 4) and week 12 (visit 5). Completed patient's diaries were reviewed for compliance at each visit. Mean clinical grading and instrumentation scores at each visit were statistically compared to baseline scores using paired t-test. Changes from baseline were considered significant at the p≦0.05 level. Mean percent change from baseline and incidence of positive responders were calculated for all attributes. Comparisons, based on the average from baseline, were made between the test materials using analysis of variance (ANOVA).

stratum corneum = assay: Corneometry, moisture content of the stratum corneum, 12 week clinical study; assay type: in vivo, human; conditions: Left Ocular Bone; for Corneometer Mean: Baseline mean 56.49
From the text: as §1, with “Corneometry measurements” for “Ultrasound measurements”, “on” for “on the left side of”, “subject's left ocular bone (in line with pupil)” for “subject's face”, “measure the moisture content” for “measure density”, “the stratum corneum.” for “the facial skin in the crow's feet area. Measurements were taken with the probe oriented perpendicular to the body axis while the subjects were resting supine on a padded patient table.”

[2] = test system: human equivalent skin tissue; assay: RT-rt-PCR (TaqMan Low Density Arrays) gene expression confirmation, agent-exposed vs unexposed skin model; assay type: cell-based; conditions: Salicin 0.5% vs. Untreated Control, HPRT as Endogenous Control Gene
Description: Preferably this is done with the same skin model as used with the microarray technology for measuring global gene expression. The qualities of the agent (concentration, solvent, etc.) should normally be the same.
In some embodiments, the agent tested is salicin at a concentration of 0.5% salicin, available from Symrise Corporation (Teterborro, N.J.). The salicin is dissolved in water. Affymetrix microarray testing provides results for thousands of genes, whereas RT-rt-PCR testing provides results for a smaller gene group. For RT-rt-PCR testing, about 90 genes are tested at a time for this particular experimental design (other designs may test as many as 390 at a time on the equipment identified below). The experimenter may choose this number based on cost.
To implement this step, RT-rt-PCR is conducted for specific genes known to be involved in skin aging. In one embodiment Custom TaqMan® Low Density Arrays (TLDA's) were configured using Applied Biosystems validated gene expression assays. The validated gene expression assays contain a TaqMan® fluorescent probe and primers for each target gene. Genes for the TLDA cards are selected based on either, published literature describing the genes functional role in skin cell biology and aging and/or the previous Affymetrix testing results. (See Tables 1-4). Five endogenous control genes may be included on each card. Thus, when a particular gene assembly is tested with RT-rt-PCR, the data resulting may cover more than just the set of genes as in Table 3.
(High-Capacity cDNA Reverse Transcription Kits for 200 and 1000 Reactions Protocol (October, 2006)). cDNA was mixed with TaqMan® Universal Master Mix without UNG and loaded into the wells of the TLDA cards. The cards are run using an Applied Biosystems 7900HT instrument according to the manufacturer's cycling parameters.
As with the microassay, the analysis is done with a skin model exposed to the agent and a reference that is not exposed to the agent. The skin model not exposed to the agent may be used for calibration. The skin model may be human equivalent skin tissue. The target genes get normalized to a stable endogenous control (genes that are invariants in all cell types such as […]). This normalization is to account for variations that may occur during sample loading. The unexposed information gathered is used for comparison against the tested sample.
The formula for ΔCT (delta cycle threshold) is CT (target) minus CT (endogenous control gene). (ΔCT=CT (target)−CT (endogenous control gene)). The test system, data processing system 710 stores the data then uses process application modules 720 to take the CT values for both the exposed and unexposed and get a ΔΔCT value, which is reported for that specific gene in a log ratio scale. […] In one embodiment, data analysis is carried out according to the RQ analysis method using RQ Manager and StatMiner (v3.1) software programs.
At least part of the comparing of the data is performed by a computer system, such as the data processing system 710 (see FIG. 7) for performing data access and storage and various computations specified by software (process application modules 720) corresponding to the functions occurring at various described steps of this method. Additional process application modules 722 perform a parametric t-test with a Benjamini and Hochberg false discovery rate correction is performed to identify genes with a statistically significant p value equal to or less than 0.05. The up or down regulation of the gene is also identifiable from the RT-rt-PCR analysis. Results of the change in threshold cycle (ΔCT) values between the exposed and unexposed human skin tissues are calculated by a software program. The selected genes will have a cycle threshold of biological relevance. For these experiments, the selected genes have a cycle threshold of less than about <35, which is a value of biological relevance. […]

OCc1ccccc1O[C@@H]1O[C@H](CO)[C@@H](O)[C@H](O)[C@H]1O [Salicin, 2-(Hydroxymethyl)phenyl β-D-glucospyranoside]
Ultrasound Density Mean ([1]; Week 4): 21.38 | Ultrasound Density % Change ([1]; Week 4 vs Baseline): (15.2%) | Ultrasound Density Mean ([1]; Week 8): 23.52 | Ultrasound Density % Change ([1]; Week 8 vs Baseline): (26.7%) | Ultrasound Density Mean ([1]; Week 12): 25.21 | Ultrasound Density % Change ([1]; Week 12 vs Baseline): (35.8%) | Corneometer Mean (stratum corneum; Week 1): 60.54 | Corneometer % Change (stratum corneum; Week 1 vs Baseline): (7.3%) | Corneometer Mean (stratum corneum; Week 4): 62.49 | Corneometer % Change (stratum corneum; Week 4 vs Baseline): (10.6%) | Corneometer Mean (stratum corneum; Week 8): 63.91 | Corneometer % Change (stratum corneum; Week 8 vs Baseline): (13.1%) | Corneometer Mean (stratum corneum; Week 12): 52.23 | Corneometer % Change (stratum corneum; Week 12 vs Baseline): (−7.5%) | CAT gene expression Direction [2]: down | CAT gene expression Log10RG [2]: −0.4768 | COL4A1 gene expression Direction [2]: up | COL4A1 gene expression Log10RG [2]: 0.2086 | DSC3 gene expression Direction [2]: down | DSC3 gene expression Log10RG [2]: −0.2938 | DSP gene expression Direction [2]: down | DSP gene expression Log10RG [2]: −0.2223 | FN1 gene expression Direction [2]: up | FN1 gene expression Log10RG [2]: 0.2411 | FOXO1 gene expression Direction [2]: up | FOXO1 gene expression Log10RG [2]: 0.2383 | IL6 gene expression Direction [2]: up | IL6 gene expression Log10RG [2]: 0.9322 | ITGB1 gene expression Direction [2]: up | ITGB1 gene expression Log10RG [2]: 9.36E−02 | ITGB4 gene expression Direction [2]: down | ITGB4 gene expression Log10RG [2]: −0.8283 | KRT1 gene expression Direction [2]: down | KRT1 gene expression Log10RG [2]: −1.112 | KRT5 gene expression Direction [2]: down | KRT5 gene expression Log10RG [2]: −0.445 | LOR gene expression Direction [2]: down | LOR gene expression Log10RG [2]: −1.921 | PRKCA gene expression Direction [2]: up | PRKCA gene expression Log10RG [2]: 0.2749 | S100A8 gene expression Direction [2]: down | S100A8 gene expression Log10RG [2]: −0.6307 | S100A9 gene expression Direction [2]: down | S100A9 gene expression Log10RG [2]: −0.6513 | SDC1 gene expression Direction [2]: down | SDC1 gene expression Log10RG [2]: −0.3961 | SMAD7 gene expression Direction [2]: up | SMAD7 gene expression Log10RG [2]: 0.2325 | SOD2 gene expression Direction [2]: up | SOD2 gene expression Log10RG [2]: 0.3025 | TNC gene expression Direction [2]: up | TNC gene expression Log10RG [2]: 0.1429 | ITGB1 gene expression Log10RG ([2]; listed as salicin): 0.09356
